Experimental data: patent US8426202B2, “Cell culture medium” (Cellca GmbH, priority 2005, dated 2013)
“And” between values parts separate entries of the source, which are not always exact repeats. Equal entries are not always repeated. Where two headings read alike, the source gives them in different places.

Columns and labels:
[1] = system: CHO cell line that expresses an antibody; assay: Batch experiment with the substances according to the invention (Example 1); format: cell-based, Chinese hamster; details: batch mode, substance 0.5-1 g/l, basal medium glucose 4.7 g/l, glutamine […]
[2] = system: CHO cell line that expresses an antibody; assay: Fed-batch experiment with the substances according to the invention (Example 2, Table 2); format: cell-based, Chinese hamster
Excerpt: Feed took place at regular intervals.

[3] = system: CHO cell line that expresses an antibody; details: fed-batch; substance 1 g/l; supernatant, ELISA; absolute value of the control set at 100%
Method: A CHO cell line that expresses an antibody was used for the experiments. The product concentration (antibody concentration) in the cell supernatant was determined by ELISA.
From selected samples, the product concentration (antibody concentration) in the supernatant was determined by ELISA (Table 3)

[4] = system: CHO cell line that expresses an antibody; details: fed-batch, glutamine-free basal and feed media, substance 0.5-1 g/l
Excerpt: (§1) A CHO cell line that expresses an antibody was used for the experiments.
This is a serum-free, protein-free nutrient medium. It is a ready-made, sterile-filtered nutrient medium.
After 1-4 days the cells were supplemented with a feed medium, i.e. the process was switched to fed-batch mode. Feed took place at regular intervals. In fed-batch experiments, a protein-free and serum-free feed medium from the company HyQ (R05.2 supplement, Cat. No.: SH30584.04, Lot No.: APF21457G) was used.
All substances (chemicals) used according to the invention were obtained from the company Sigma and stock solutions were prepared from them. From the stock solutions, the substances were put at the desired final concentration in culture tubes. The various culture tubes prepared in this way were finally inoculated with the antibody-producing CHO-clone at a target inoculation cell concentration (1-3×10^5/ml). For this, the corresponding amount of inoculum cells was calculated and the required amount of inoculum cell suspension was centrifuged. […] In this way the desired inoculation cell concentration was adjusted in the cell suspension being investigated. The cell suspension thus prepared was proportioned in the culture tubes, which were provided with the substances according to the invention beforehand. The culture tubes were incubated at 37° C., and 8% CO2 atmosphere, with shaking. The culture tubes were cultivated for 8-11 days in the batch mode or in the fed-batch mode. Samples for offline measurement of the variables were taken from the culture vessels at regular intervals, for example daily or on every third day. The metabolic variables and cell concentrations of the samples were measured. Cell concentration and cell vitality were measured with a CeDex instrument. The metabolic variables (glucose, lactate, glutamine and ammonium) were determined with an analyzer (BioProfile 100).
(§2) The following final concentrations of the substances according to the invention were established in a nutrient medium after inoculation:
The substances according to the invention were tested under fed-batch conditions. […] The feed medium used was from the company HyQ (R05.2 supplement, Cat. No.: SH30584.04, Lot No.: APF21457G). The feed medium was glutamine-free (Table 4).

[5] = system: CHO cell line that expresses an antibody; details: fed-batch, basal medium 4 mM glutamine, feed with 3 g/l Ala-Gln and 3 g/l Gly-Gln, substance 0.5-1 g/l
Method: as §1
The experiments were carried out either in batch mode or in fed-batch mode. When the process was carried out in fed-batch mode, the process was first started in batch mode in the above-mentioned basal medium and cells were cultivated in this manner for 1-4 days. After 1-4 days the cells were supplemented with a feed medium, i.e. the process was switched to fed-batch mode. Feed took place at regular intervals. In fed-batch experiments, a protein-free and serum-free feed medium from the company HyQ (R05.2 supplement, Cat. No.: SH30584.04, Lot No.: APF21457G) was used.
From the stock solutions, the substances were put at the desired final concentration in culture tubes. The various culture tubes prepared in this way were finally inoculated with the antibody-producing CHO-clone at a target inoculation cell concentration (1-3×10^5/ml). For this, the corresponding amount of inoculum cells was calculated and the required amount of inoculum cell suspension was centrifuged. […] In this way the desired inoculation cell concentration was adjusted in the cell suspension being investigated. The cell suspension thus prepared was proportioned in the culture tubes, which were provided with the substances according to the invention beforehand. The culture tubes were incubated at 37° C., and 8% CO2 atmosphere, with shaking. The culture tubes were cultivated for 8-11 days in the batch mode or in the fed-batch mode. Samples for offline measurement of the variables were taken from the culture vessels at regular intervals, for example daily or on every third day. The metabolic variables and cell concentrations of the samples were measured. Cell concentration and cell vitality were measured with a CeDex instrument. The metabolic variables (glucose, lactate, glutamine and ammonium) were determined with an analyzer (BioProfile 100).
as §2
The substances according to the invention were tested under fed-batch conditions. […] The feed medium used was from the company HyQ (R05.2 supplement, Cat. No.: SH30584.04, Lot No.: APF21457G). 3 g/l alanyl-glutamine (Ala-Gin) and 3 g/l glycyl-glutamine (Gly-Gln) were added to the feed medium.

Which Gln ([1]; day 0) does the source give for `O=C([O-])CCC(=O)[O-].[Na+].[Na+]` [Sodium succinate] here?
Its Gln is 1.53 mM.

And the Glucose ([1]; day 0)?
Its Glucose is 4.69 g/L.

What about the Lactate ([1]; day 0) of the same compound?
The Lactate was 0 g/L.

What about the NH4 ([1]; day 0) of the same compound?
Its NH4 is 1.22 mM.

What about the “Specific Glutamin consumption (Gln/VCD)” value ([1]; day 0) of the same compound?
The value was 1.49.

And the “Specific ammonia production (NH4/VCD)” value ([1]; day 0)?
The value was 1.18.

What about the “Specific glucose consumption (Gluc/VCD)” value ([1]; day 0) of the same compound?
The value was 4.55.

And the “Specific lactate production (Lac/VCD)” value ([1]; day 0)?
The value was 0.00.

What about the “Total Cell Density TCD” value ([1]; day 0) of the same compound?
The value was 1.07 E5/ml.

And the Viabil. ([1]; day 0)?
The Viabil. was 96%.

What about the “Viable Cell Density (VCD)” value ([1]; day 0) of the same compound?
Its value is 1.03 E5/ml.

What about the Gln ([1]; day 3) of the same compound?
The Gln was 0.76 mM.

What about the Glucose ([1]; day 3) of the same compound?
The Glucose was 3.82 g/L.

And the Lactate ([1]; day 3)?
Its Lactate is 0.86 g/L.

And the NH4 ([1]; day 3)?
The NH4 was 1.84 mM.

And the “Specific Glutamin consumption (Gln/VCD)” value ([1]; day 3)?
The value was 0.09.

What about the “Specific ammonia production (NH4/VCD)” value ([1]; day 3) of the same compound?
Its value is 0.22.

And the “Specific glucose consumption (Gluc/VCD)” value ([1]; day 3)?
Its value is 0.47.

What about the “Specific lactate production (Lac/VCD)” value ([1]; day 3) of the same compound?
The value was 0.10.

What about the “Total Cell Density TCD” value ([1]; day 3) of the same compound?
The value was 8.3 E5/ml.

And the Viabil. ([1]; day 3)?
The Viabil. was 99%.

What about the “Viable Cell Density (VCD)” value ([1]; day 3) of the same compound?
The value was 8.2 E5/ml.

What about the Gln ([1]; day 6) of the same compound?
The Gln was 0.31 mM.

And the Glucose ([1]; day 6)?
The Glucose was 2.4 g/L.

What about the Lactate ([1]; day 6) of the same compound?
The Lactate was 1.19 g/L.

What about the NH4 ([1]; day 6) of the same compound?
Its NH4 is 2.25 mM.

What about the “Specific Glutamin consumption (Gln/VCD)” value ([1]; day 6) of the same compound?
Its value is 0.01.

What about the “Specific ammonia production (NH4/VCD)” value ([1]; day 6) of the same compound?
The value was 0.05.

What about the “Specific glucose consumption (Gluc/VCD)” value ([1]; day 6) of the same compound?
Its value is 0.05.

And the “Specific lactate production (Lac/VCD)” value ([1]; day 6)?
Its value is 0.02.

And the “Total Cell Density TCD” value ([1]; day 6)?
The value was 49.1 E5/ml.

And the Viabil. ([1]; day 6)?
Its Viabil. is 98%.

What about the “Viable Cell Density (VCD)” value ([1]; day 6) of the same compound?
Its value is 48.1 E5/ml.

And the Gln ([1]; day 8)?
Its Gln is 0.36 mM.

What about the Glucose ([1]; day 8) of the same compound?
The Glucose was 1.44 g/L.

And the Lactate ([1]; day 8)?
The Lactate was 1.14 g/L.

And the NH4 ([1]; day 8)?
Its NH4 is 2.33 mM.

What about the “Specific Glutamin consumption (Gln/VCD)” value ([1]; day 8) of the same compound?
The value was 0.01.

What about the “Specific ammonia production (NH4/VCD)” value ([1]; day 8) of the same compound?
The value was 0.09.

And the “Specific glucose consumption (Gluc/VCD)” value ([1]; day 8)?
Its value is 0.06.

What about the “Specific lactate production (Lac/VCD)” value ([1]; day 8) of the same compound?
The value was 0.04.

And the “Total Cell Density TCD” value ([1]; day 8)?
The value was 29.8 E5/ml.

What about the Viabil. ([1]; day 8) of the same compound?
The Viabil. was 86%.

And the “Viable Cell Density (VCD)” value ([1]; day 8)?
Its value is 25.6 E5/ml.

What about the Gln ([1]; day 11) of the same compound?
Its Gln is 0.52 mM.

And the Glucose ([1]; day 11)?
Its Glucose is 0.22 g/L.

And the Lactate ([1]; day 11)?
Its Lactate is 1.59 g/L.

What about the NH4 ([1]; day 11) of the same compound?
The NH4 was 3 mM.

And the “Specific Glutamin consumption (Gln/VCD)” value ([1]; day 11)?
The value was 0.03.

And the “Specific ammonia production (NH4/VCD)” value ([1]; day 11)?
Its value is 0.18.

What about the “Specific glucose consumption (Gluc/VCD)” value ([1]; day 11) of the same compound?
Its value is 0.01.

What about the “Specific lactate production (Lac/VCD)” value ([1]; day 11) of the same compound?
Its value is 0.10.

And the “Total Cell Density TCD” value ([1]; day 11)?
Its value is 32.8 E5/ml.

What about the Viabil. ([1]; day 11) of the same compound?
Its Viabil. is 50%.

And the “Viable Cell Density (VCD)” value ([1]; day 11)?
The value was 16.3 E5/ml.

And the “Total Cell Density TCD” value ([2]; day 0, fed-batch)?
The value was 1.5 E5/ml.

What about the Viabil. ([2]; day 0, fed-batch) of the same compound?
Its Viabil. is 91%.

What about the “Viable Cell Density (VCD)” value ([2]; day 0, fed-batch) of the same compound?
The value was 1.37 E5/ml.

What about the “Total Cell Density TCD” value ([2]; day 2, fed-batch) of the same compound?
Its value is 4.2 E5/ml and 4.4 E5/ml.

What about the Viabil. ([2]; day 2, fed-batch) of the same compound?
Its Viabil. is 98%.

And the “Viable Cell Density (VCD)” value ([2]; day 2, fed-batch)?
Its value is 4.1 E5/ml and 4.3 E5/ml.

What about the “Total Cell Density TCD” value ([2]; day 5, fed-batch) of the same compound?
Its value is 18.1 E5/ml.

What about the Viabil. ([2]; day 5, fed-batch) of the same compound?
The Viabil. was 97%.

What about the “Viable Cell Density (VCD)” value ([2]; day 5, fed-batch) of the same compound?
Its value is 17.5 E5/ml.

What about the “Total Cell Density TCD” value ([2]; day 8, fed-batch) of the same compound?
Its value is 62.2 E5/ml and 64.1 E5/ml.

And the Viabil. ([2]; day 8, fed-batch)?
Its Viabil. is 90% and 92%.

And the “Viable Cell Density (VCD)” value ([2]; day 8, fed-batch)?
Its value is 55.7 E5/ml and 58.8 E5/ml.

What about the Antibody concentration [3] of the same compound?
Its Antibody concentration is 127%.

What about the “Sp. Gluc cons.” value ([4]; day 0) of the same compound?
The value was 95.

What about the “Sp. NH4 prod” value ([4]; day 0) of the same compound?
The value was 98 % of control.

And the TCD ([4]; day 0)?
Its TCD is 100 % of control.

And the VCD ([4]; day 0)?
The VCD was 100 % of control.

And the Viabil. ([4]; day 0)?
The Viabil. was 94%.

And the “Sp. Gluc cons.” value ([4]; day 3)?
Its value is 74.

What about the “Sp. Lactate prod.” value ([4]; day 3) of the same compound?
The value was 75 % of control.

And the “Sp. NH4 prod” value ([4]; day 3)?
The value was 72 % of control.

What about the TCD ([4]; day 3) of the same compound?
The TCD was 124 % of control.

What about the VCD ([4]; day 3) of the same compound?
The VCD was 132 % of control.

And the Viabil. ([4]; day 3)?
Its Viabil. is 95%.

And the “Sp. Gluc cons.” value ([4]; day 5)?
The value was 88.

What about the “Sp. Lactate prod.” value ([4]; day 5) of the same compound?
Its value is 93 % of control.

And the “Sp. NH4 prod” value ([4]; day 5)?
Its value is 90 % of control.

And the TCD ([4]; day 5)?
The TCD was 108 % of control.

And the VCD ([4]; day 5)?
The VCD was 111 % of control.

What about the Viabil. ([4]; day 5) of the same compound?
Its Viabil. is 95%.

And the “Sp. Gluc cons.” value ([4]; day 7)?
Its value is 78.

What about the “Sp. Lactate prod.” value ([4]; day 7) of the same compound?
Its value is 89 % of control.

What about the “Sp. NH4 prod” value ([4]; day 7) of the same compound?
Its value is 85 % of control.

And the TCD ([4]; day 7)?
The TCD was 118 % of control.

What about the VCD ([4]; day 7) of the same compound?
Its VCD is 117 % of control.

And the Viabil. ([4]; day 7)?
Its Viabil. is 87%.

What about the “Sp. Gluc cons.” value ([4]; day 9) of the same compound?
Its value is 69.

And the “Sp. Lactate prod.” value ([4]; day 9)?
The value was 78 % of control.

And the “Sp. NH4 prod” value ([4]; day 9)?
Its value is 74 % of control.

And the TCD ([4]; day 9)?
The TCD was 134 % of control.

What about the VCD ([4]; day 9) of the same compound?
Its VCD is 136 % of control.

What about the Viabil. ([4]; day 9) of the same compound?
The Viabil. was 94%.

What about the “Total Cell Density TCD” value ([5]; day 0) of the same compound?
Its value is 1.1 E5/ml.

What about the Viabil. ([5]; day 0) of the same compound?
The Viabil. was 96%.

And the “Viable Cell Density (VCD)” value ([5]; day 0)?
Its value is 1.0 E5/ml.

And the “Total Cell Density TCD” value ([5]; day 3)?
Its value is 9.3 E5/ml.

What about the Viabil. ([5]; day 3) of the same compound?
Its Viabil. is 95%.

And the “Viable Cell Density (VCD)” value ([5]; day 3)?
Its value is 8.8 E5/ml.

And the “Total Cell Density TCD” value ([5]; day 5)?
The value was 56.7 E5/ml.

What about the Viabil. ([5]; day 5) of the same compound?
The Viabil. was 96%.

And the “Viable Cell Density (VCD)” value ([5]; day 5)?
Its value is 54.3 E5/ml.

What about the “Total Cell Density TCD” value ([5]; day 7) of the same compound?
Its value is 42.0 E5/ml.

What about the Viabil. ([5]; day 7) of the same compound?
The Viabil. was 82%.

What about the “Viable Cell Density (VCD)” value ([5]; day 7) of the same compound?
Its value is 34.5 E5/ml.

And the “Total Cell Density TCD” value ([5]; day 9)?
The value was 35.9 E5/ml.

What about the Viabil. ([5]; day 9) of the same compound?
Its Viabil. is 74%.

What about the “Viable Cell Density (VCD)” value ([5]; day 9) of the same compound?
The value was 26.7 E5/ml.
